The text below walks through data of patent publication US20090069320A1, “Substituted 4-Amino-Quinazoline Compounds with Metabotropic Glutamate Receptor Regulating Activity and Uses Thereof” (Gruenenthal GmbH, priority 2006, published 2009).

SMILES strings stand for the structures.

This assay concerns the target T1, mGluR5 receptor (Sus scrofa, UniProt I3LUI7).
T1 construct: 450 μg of protein from brain homogenate with 5 nM ^3[H]-MPEP; from tissue; host or cells: pig brain halves without medulla, cerebellum and pons
Description: [3H]-MPEP mGluR5 receptor binding assay (pig brain homogenate). The conditions noted are these: 5 nM [3H]-MPEP; for inhibition at 10 µM / % Inhibition of mGluR5 Receptor (pig) [^3H]-MPEP Bond at 10 μM: 10 μM compound; for inhibition at 10 µM: read-out: % Inhibition of mGluR5 Receptor (pig) [^3H]-MPEP Bond at 10 μM. Put shortly: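 Compounds at 10 μM competed with 5 nM [3H]-MPEP for binding to pig brain membranes (450 μg protein) for 60 min at room temperature in pH 8.0 Hepes buffer. Bound radioactivity was collected on glass-fibre filters and read by β-counting, with 10 μM unlabelled MPEP giving non-specific binding.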

T1 sequence (I3LUI7 19-1212): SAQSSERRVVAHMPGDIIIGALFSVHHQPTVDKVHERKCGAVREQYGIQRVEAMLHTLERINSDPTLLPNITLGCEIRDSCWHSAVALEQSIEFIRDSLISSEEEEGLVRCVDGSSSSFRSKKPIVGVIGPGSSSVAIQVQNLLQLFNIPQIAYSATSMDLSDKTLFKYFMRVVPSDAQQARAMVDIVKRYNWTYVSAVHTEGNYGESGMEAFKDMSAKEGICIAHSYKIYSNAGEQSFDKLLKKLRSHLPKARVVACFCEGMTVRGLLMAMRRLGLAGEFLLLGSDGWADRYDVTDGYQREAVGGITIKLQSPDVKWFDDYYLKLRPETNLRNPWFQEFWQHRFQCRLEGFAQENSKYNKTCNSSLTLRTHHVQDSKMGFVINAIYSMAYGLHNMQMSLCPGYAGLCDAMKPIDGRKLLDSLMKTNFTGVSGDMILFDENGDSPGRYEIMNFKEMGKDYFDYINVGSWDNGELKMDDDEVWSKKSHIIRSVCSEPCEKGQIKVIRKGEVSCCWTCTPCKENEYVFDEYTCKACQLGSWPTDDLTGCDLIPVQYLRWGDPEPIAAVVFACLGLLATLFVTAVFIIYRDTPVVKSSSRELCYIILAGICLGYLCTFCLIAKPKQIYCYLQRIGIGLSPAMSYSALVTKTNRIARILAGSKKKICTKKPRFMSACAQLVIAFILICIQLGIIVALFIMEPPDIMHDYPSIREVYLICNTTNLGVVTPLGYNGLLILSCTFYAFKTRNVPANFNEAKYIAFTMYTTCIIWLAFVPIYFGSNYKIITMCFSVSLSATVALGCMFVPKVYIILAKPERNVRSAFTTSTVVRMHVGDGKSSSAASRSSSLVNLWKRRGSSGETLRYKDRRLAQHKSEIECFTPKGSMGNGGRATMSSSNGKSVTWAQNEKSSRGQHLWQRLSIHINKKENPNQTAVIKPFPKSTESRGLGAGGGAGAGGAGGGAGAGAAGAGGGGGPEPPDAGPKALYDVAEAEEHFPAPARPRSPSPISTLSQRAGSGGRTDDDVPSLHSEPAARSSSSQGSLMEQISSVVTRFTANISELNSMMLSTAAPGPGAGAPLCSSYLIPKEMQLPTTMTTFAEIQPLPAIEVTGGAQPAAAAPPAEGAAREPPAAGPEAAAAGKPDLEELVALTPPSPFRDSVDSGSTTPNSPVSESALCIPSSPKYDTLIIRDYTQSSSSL

Usually inhibition stands for the drop in the measured response relative to a control, in per cent. For the compound `O=C(c1ccccc1C(F)(F)F)N(Cc1cc(-c2ccc3ncnc(NC4CC4)c3c2)ccn1)C1CC1` [Example 749, N-cyclopropyl-N-((4-(4-(cyclopropylamino)quinazolin-6-yl)pyridin-2-yl)methyl)-2-(trifluoromethyl)benzamide], the inhibition at 10 µM turned out to be 65%.
Take `O=C(c1cc(Cl)cc(Cl)c1)N(Cc1cc(-c2ccc3ncnc(NC4CC4)c3c2)ccn1)C1CC1` [Example 750, 3,5-dichloro-N-cyclopropyl-N-((4-(4-(cyclopropylamino)quinazolin-6-yl)pyridin-2-yl)methyl)benzamide]: the inhibition at 10 µM came out at 42%.
On the same count and under the same terms, to `CN(C)CC(=O)N(Cc1cccc(-c2cc(F)c3ncnc(NC4CC4)c3c2)c1)C1CC1` [Example 751, N-cyclopropyl-N-(3-(4-(cyclopropylamino)-8-fluoroquinazolin-6-yl)benzyl)-2-(dimethylamino)acetamide] belongs 53%; to `O=C(c1c(F)c(F)c(F)c(F)c1F)N(Cc1cccc(-c2cc(F)c3ncnc(NC4CC4)c3c2)c1)C1CC1` [Example 752, N-cyclopropyl-N-(3-(4-(cyclopropylamino)-8-fluoroquinazolin-6-yl)benzyl)-2,3,4,5,6-pentafluorobenzamide], 62%.
As to `O=C(c1cccs1)N(Cc1cc(-c2ccc3ncnc(NC4CC4)c3c2)ccc1Cl)C1CC1` [Example 754, N-(2-chloro-5-(4-(cyclopropylamino)quinazolin-6-yl)benzyl)-N-cyclopropylthiophene-2-carboxamide], the inhibition at 10 µM was 95%.
Still for that read-out and setting: to `O=C(c1ccccn1)N(Cc1cc(-c2ccc3ncnc(NC4CC4)c3c2)ccc1Cl)C1CC1` [Example 755, N-(2-chloro-5-(4-(cyclopropylamino)quinazolin-6-yl)benzyl)-N-cyclopropylpicolinamide] belongs 78%; to `O=C(CCc1ccccc1)N(Cc1cc(-c2ccc3ncnc(NC4CC4)c3c2)ccc1Cl)C1CC1` [Example 756, N-(2-chloro-5-(4-(cyclopropylamino)quinazolin-6-yl)benzyl)-N-cyclopropyl-3-phenylpropanamide], 69%; to `Cc1nc(C(=O)N(Cc2cccc(-c3cc4c(NC5CC5)ncnc4cc3C)c2)C2CC2)cs1` [Example 759, N-cyclopropyl-N-(3-(4-(cyclopropylamino)-7-methylquinazolin-6-yl)benzyl)-2-methylthiazole-4-carboxamide], 83%.
As for `Cc1cc(C(=O)N(Cc2cccc(-c3cc(F)c4ncnc(NC5CC5)c4c3)c2)C2CC2)n(C)n1` [Example 760, N-cyclopropyl-N-(3-(4-(cyclopropylamino)-8-fluoroquinazolin-6-yl)benzyl)-1,3-dimethyl-1H-pyrazole-5-carboxamide], the inhibition at 10 µM is 93%.
Regarding `O=S(=O)(c1c(F)c(F)c(F)c(F)c1F)N(Cc1cccc(-c2cc(F)c3ncnc(NC4CC4)c3c2)c1)C1CC1` [Example 761, N-cyclopropyl-N-(3-(4-(cyclopropylamino)-8-fluoroquinazolin-6-yl)benzyl)-2,3,4,5,6-pentafluorobenzole sulfonamide], the “% Inhibition of mGluR5 Receptor (pig) [^3H]-MPEP Bond at 10 μM” value (from here on “% Inhibition of mGluR5 Receptor (pig)”) is recorded as 45%.
In the case of `O=C(c1ccno1)N(Cc1cc(-c2ccc3ncnc(NC4CC4)c3c2)ccc1Cl)C1CC1` [Example 762, N-(2-chloro-5-(4-(cyclopropylamino)quinazolin-6-yl)benzyl)-N-cyclopropyl isoxazole-5-carboxamide], the “% Inhibition of mGluR5 Receptor (pig)” value is on record as 91%.
On the same count and under the same terms, as for `O=C(c1ccncc1)N(Cc1cc(-c2ccc3ncnc(NC4CC4)c3c2)ccc1Cl)C1CC1` [Example 763, N-(2-chloro-5-(4-(cyclopropylamino)quinazolin-6-yl)benzyl)-N-cyclopropyl isonicotinamide], the figure is 86%.
Take `CS(=O)(=O)N(Cc1cc(-c2ccc3ncnc(NC4CC4)c3c2)ccc1Cl)C1CC1` [Example 764, N-(2-chloro-5-(4-(cyclopropylamino)quinazolin-6-yl)benzyl)-N-cyclopropyl methane sulfonamide]: the “% Inhibition of mGluR5 Receptor (pig)” value is on record as 87%.
As to `Cc1cc2ncnc(NC3CC3)c2cc1-c1cccc(CN(C(=O)c2c(F)c(F)c(F)c(F)c2F)C2CC2)c1` [Example 768, N-cyclopropyl-N-(3-(4-(cyclopropylamino)-7-methylquinazolin-6-yl)benzyl)-2,3,4,5,6-pentafluorobenzamide], the inhibition at 10 µM came out at 88%.
Regarding `Cc1nc(C(=O)N(Cc2cc(-c3ccc4ncnc(NC5CC5)c4c3)ccc2Cl)C2CC2)cs1` [Example 769, N-(2-chloro-5-(4-(cyclopropylamino)quinazolin-6-yl)benzyl)-N-cyclopropyl-2-methylthiazole-4-carboxamide], the inhibition at 10 µM turned out to be 83%.
As for `O=C(c1cccnc1)N(Cc1cc(-c2ccc3ncnc(NC4CC4)c3c2)ccc1Cl)C1CC1` [Example 770, N-(2-chloro-5-(4-(cyclopropylamino)quinazolin-6-yl)benzyl)-N-cyclopropyl nicotinamide], the “% Inhibition of mGluR5 Receptor (pig)” value was found to be 84%.
Consider `O=S(=O)(Cc1ccccc1)N(Cc1cc(-c2ccc3ncnc(NC4CC4)c3c2)ccc1Cl)C1CC1` [Example 771, N-(2-chloro-5-(4-(cyclopropylamino)quinazolin-6-yl)benzyl)-N-cyclopropyl-1-phenylmethane sulfonamide], for which the inhibition at 10 µM turned out to be 80%.
Still for that read-out and setting: as for `CC(=O)N(Cc1cc(-c2ccc3ncnc(NC4CC4)c3c2)ccn1)C1CC1` [Example 773, N-cyclopropyl-N-((4-(4-(cyclopropylamino)quinazolin-6-yl)pyridin-2-yl)methyl)acetamide], the figure is 74%.
Still for that read-out and setting: to `O=C(c1ccno1)N(Cc1cccc(-c2cc(F)c3ncnc(NC4CC4)c3c2)c1)C1CC1` [Example 775, N-cyclopropyl-N-(3-(4-(cyclopropylamino)-8-fluoroquinazolin-6-yl)benzyl)isoxazole-5-carboxamide] belongs 76%.
The same measure, in the same setting: to `Cc1cc(C(=O)N(Cc2cc(-c3ccc4ncnc(NC5CC5)c4c3)ccc2Cl)C2CC2)n(C)n1` [Example 776, N-(2-chloro-5-(4-(cyclopropylamino)quinazolin-6-yl)benzyl)-N-cyclopropyl-1,3-dimethyl-1H-pyrazole-5-carboxamide] belongs 55%.
The IC50 is the concentration that inhibits the measured activity by half. `CC(=O)N(Cc1cc(-c2ccc3ncnc(NC4CC4)c3c2)ccc1Cl)C1CC1` [Example 777, N-(2-chloro-5-(4-(cyclopropylamino)quinazolin-6-yl)benzyl)-N-cyclopropyl acetamide]: the concentration for half-maximal inhibition (IC50) (read-out: IC50 mGluR5 Receptor (pig) [^3H]-MPEP Bond) stood at 0.05 µM.
As to `O=S(=O)(c1cccc(C(F)(F)F)c1)N(Cc1cc(-c2ccc3ncnc(NC4CC4)c3c2)ccc1Cl)C1CC1` [Example 778, N-(2-chloro-5-(4-(cyclopropylamino)quinazolin-6-yl)benzyl)-N-cyclopropyl-3-(trifluoromethyl)benzole sulfonamide], the “% Inhibition of mGluR5 Receptor (pig)” value was 84%.
Consider `O=C(c1cccnc1)N(Cc1cccc(-c2cc(F)c3ncnc(NC4CC4)c3c2)c1)C1CC1` [Example 781, N-cyclopropyl-N-(3-(4-(cyclopropylamino)-8-fluoroquinazolin-6-yl)benzyl)nicotinamide], for which the inhibition at 10 µM worked out at 67%.
Regarding `O=S(=O)(c1ccc(Cl)cc1Cl)N(Cc1cccc(-c2cc(F)c3ncnc(NC4CC4)c3c2)c1)C1CC1` [Example 782, 2,4-dichloro-N-cyclopropyl-N-(3-(4-(cyclopropylamino)-8-fluoroquinazolin-6-yl)benzyl)benzole sulfonamide], the “% Inhibition of mGluR5 Receptor (pig)” value amounted to 50%.
As to `O=C(c1ccccc1)N(Cc1cc(-c2ccc3ncnc(NC4CC4)c3c2)ccc1Cl)C1CC1` [Example 783, N-(2-chloro-5-(4-(cyclopropylamino)quinazolin-6-yl)benzyl)-N-cyclopropyl benzamide], the “% Inhibition of mGluR5 Receptor (pig)” value was found to be 93%.
For the compound `COc1ccc(C(=O)N(Cc2cc(-c3ccc4ncnc(NC5CC5)c4c3)ccc2Cl)C2CC2)cc1OC` [Example 784, N-(2-chloro-5-(4-(cyclopropylamino)quinazolin-6-yl)benzyl)-N-cyclopropyl-3,4-dimethoxybenzamide], the inhibition at 10 µM was found to be 56%.
For `CC(C)(C)C(=O)N(Cc1cc(-c2ccc3ncnc(NC4CC4)c3c2)ccc1Cl)C1CC1` [Example 785, N-(2-chloro-5-(4-(cyclopropylamino)quinazolin-6-yl)benzyl)-N-cyclopropyl pivalamide], the “% Inhibition of mGluR5 Receptor (pig)” value is recorded as 100%.
With `COc1ccc(S(=O)(=O)N(Cc2cc(-c3ccc4ncnc(NC5CC5)c4c3)ccc2Cl)C2CC2)cc1` [Example 786, N-(2-chloro-5-(4-(cyclopropylamino)quinazolin-6-yl)benzyl)-N-cyclopropyl-4-methoxybenzole sulfonamide], the “% Inhibition of mGluR5 Receptor (pig)” value worked out at 95%.
Take `O=S(=O)(c1cccs1)N(Cc1cc(-c2ccc3ncnc(NC4CC4)c3c2)ccn1)C1CC1` [Example 788, N-cyclopropyl-N-((4-(4-(cyclopropylamino)quinazolin-6-yl)pyridin-2-yl)methyl)thiophene-2-sulfonamide]: the inhibition at 10 µM was found to be 77%.
In the case of `O=C(c1ccccc1C(F)(F)F)N(Cc1cccc(-c2cc(F)c3ncnc(NC4CC4)c3c2)c1)C1CC1` [Example 789, N-cyclopropyl-N-(3-(4-(cyclopropylamino)-8-fluoroquinazolin-6-yl)benzyl)-2-(trifluoromethyl)benzamide], the inhibition at 10 µM was found to be 84%.
With `O=C(c1cccc(F)c1)N(Cc1cc(-c2ccc3ncnc(NC4CC4)c3c2)ccc1Cl)C1CC1` [Example 791, N-(2-chloro-5-(4-(cyclopropylamino)quinazolin-6-yl)benzyl)-N-cyclopropyl-3-fluorobenzamide], the inhibition at 10 µM turned out to be 89%.
